# Columns and labels:
# [1] = target: Alpha-2B adrenergic receptor (Homo sapiens, UniProt P18089); assay: GPCRScan assay: inhibition of Alpha2B; set-up: radioligand conc. used [nm] 1.5 – 2.0, parental cells HEKT
# [2] = target: Alpha-2C adrenergic receptor (Homo sapiens, UniProt P18825); assay: GPCRScan assay: inhibition of Alpha2C; set-up: radioligand conc. used [nm] 0.5 – 1.0, parental cells stable MDCK
# [3] = target: Prothrombin (Homo sapiens) (UniProt P00734); assay: Thrombin(h) Eurofins-Cerep enzyme and uptake assay; conditions: Compound concentration 10.0 uM
# Chymase (Homo sapiens) = Chymase (Homo sapiens) (UniProt P23946); assay: Chymase (h) Eurofins-Cerep enzyme and uptake assay; conditions: Compound concentration 10.0 uM
# [4] = target: Angiotensin-converting enzyme (Homo sapiens) (UniProt P12821); assay: ACE (h) Eurofins-Cerep enzyme and uptake assay; conditions: Compound concentration 10.0 uM
# [5] = target: Angiotensin-converting enzyme 2 (Homo sapiens) (UniProt Q9BYF1); assay: ACE-2 (h) Eurofins-Cerep enzyme and uptake assay; conditions: Compound concentration 10.0 uM
# [6] = target: Beta-secretase 1 (Homo sapiens) (UniProt P56817); assay: BACE-1 (h) (β-secretase) Eurofins-Cerep enzyme and uptake assay; conditions: Compound concentration 10.0 uM
# [7] = target: Endothelin-converting enzyme 1 (Homo sapiens) (UniProt P42892); assay: ECE-1 (h) Eurofins-Cerep enzyme and uptake assay; conditions: Compound concentration 10.0 uM
# [8] = target: Neutrophil elastase (Homo sapiens) (UniProt P08246); assay: Elastase (h) Eurofins-Cerep enzyme and uptake assay; conditions: Compound concentration 10.0 uM
# Caspase-1 (Homo sapiens) = Caspase-1 (Homo sapiens) (UniProt P29466); assay: Caspase-1 (h) Eurofins-Cerep enzyme and uptake assay; conditions: Compound concentration 10.0 uM
# Caspase-2 (Homo sapiens) = Caspase-2 (Homo sapiens) (UniProt P42575); assay: Caspase-2 (h) Eurofins-Cerep enzyme and uptake assay; conditions: Compound concentration 10.0 uM
# Caspase-6 (Homo sapiens) = Caspase-6 (Homo sapiens) (UniProt P55212); assay: Caspase-6 (h) Eurofins-Cerep enzyme and uptake assay; conditions: Compound concentration 10.0 uM
# Caspase-7 (Homo sapiens) = Caspase-7 (Homo sapiens) (UniProt P55210); assay: Caspase-7 (h) Eurofins-Cerep enzyme and uptake assay; conditions: Compound concentration 10.0 uM
# Caspase-8 (Homo sapiens) = Caspase-8 (Homo sapiens) (UniProt Q14790); assay: Caspase-8 (h) Eurofins-Cerep enzyme and uptake assay; conditions: Compound concentration 10.0 uM
# [9] = target: Caspase-10 (Homo sapiens) (UniProt Q92851); assay: Caspase-10 (h) Eurofins-Cerep enzyme and uptake assay; conditions: Compound concentration 10.0 uM
# [10] = target: Cathepsin B (Homo sapiens) (UniProt P07858); assay: Cathepsin B (h) Eurofins-Cerep enzyme and uptake assay; conditions: Compound concentration 10.0 uM
# [11] = target: Cathepsin D (Homo sapiens) (UniProt P07339); assay: Cathepsin D (h) Eurofins-Cerep enzyme and uptake assay; conditions: Compound concentration 10.0 uM
# [12] = target: Cathepsin E (Homo sapiens) (UniProt P14091); assay: Cathepsin E Eurofins-Cerep enzyme and uptake assay; conditions: Mus musculus; Compound concentration 10.0 uM
# [13] = target: Cathepsin G (Homo sapiens) (UniProt P08311); assay: Cathepsin G (h) Eurofins-Cerep enzyme and uptake assay; conditions: Compound concentration 10.0 uM
# [14] = target: Pro-cathepsin H (Homo sapiens) (UniProt P09668); assay: Cathepsin H (h) Eurofins-Cerep enzyme and uptake assay; conditions: Compound concentration 10.0 uM
# [15] = target: Cathepsin Z (Homo sapiens) (UniProt Q9UBR2); assay: Cathepsin X (h) Eurofins-Cerep enzyme and uptake assay; conditions: Compound concentration 10.0 uM
# [16] = target: Protease (Human immunodeficiency virus 1) (UniProt Q9YQ12); assay: HIV-1 protease Eurofins-Cerep enzyme and uptake assay; conditions: Compound concentration 10.0 uM
# [17] = target: Dipeptidyl peptidase 4 (Homo sapiens) (UniProt P27487); assay: Dipeptidyl peptidase IV (h) (DPP-IV) Eurofins-Cerep enzyme and uptake assay; conditions: Compound concentration 10.0 uM
# [18] = target: Interstitial collagenase (Homo sapiens) (UniProt P03956); assay: MMP-1 (h) Eurofins-Cerep enzyme and uptake assay; conditions: Compound concentration 10.0 uM
# [19] = target: 72 kDa type IV collagenase (Homo sapiens) (UniProt P08253); assay: MMP-2 (h) Eurofins-Cerep enzyme and uptake assay; conditions: Compound concentration 10.0 uM
# [20] = target: Stromelysin-1 (Homo sapiens) (UniProt P08254); assay: MMP-3 (h) Eurofins-Cerep enzyme and uptake assay; conditions: Compound concentration 10.0 uM
# [21] = target: Neutrophil collagenase (Homo sapiens) (UniProt P22894); assay: MMP-8 (h) Eurofins-Cerep enzyme and uptake assay; conditions: Compound concentration 10.0 uM
# [22] = target: Matrix metalloproteinase-9 (Homo sapiens) (UniProt P14780); assay: MMP-9 (h) Eurofins-Cerep enzyme and uptake assay; conditions: Compound concentration 10.0 uM
# [23] = target: Macrophage metalloelastase (Homo sapiens) (UniProt P39900); assay: MMP-12 (h) Eurofins-Cerep enzyme and uptake assay; conditions: Compound concentration 10.0 uM
# Chain of Macrophage metalloelastase (Homo sapiens) (P39900 106-470 limits assumed): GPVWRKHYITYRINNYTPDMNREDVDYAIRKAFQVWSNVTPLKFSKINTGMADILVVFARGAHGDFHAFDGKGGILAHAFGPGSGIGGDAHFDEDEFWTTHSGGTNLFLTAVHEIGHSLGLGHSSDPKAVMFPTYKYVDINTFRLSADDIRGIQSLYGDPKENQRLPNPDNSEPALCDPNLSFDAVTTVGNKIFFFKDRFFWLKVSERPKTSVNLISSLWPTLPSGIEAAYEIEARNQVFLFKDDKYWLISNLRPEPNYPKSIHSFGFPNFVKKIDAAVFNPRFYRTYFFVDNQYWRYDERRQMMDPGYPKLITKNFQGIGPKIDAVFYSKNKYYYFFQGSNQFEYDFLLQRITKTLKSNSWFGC
# [24] = target: Matrix metalloproteinase-14 (Homo sapiens) (UniProt P50281); assay: MT1-MMP (h) (MMP-14) Eurofins-Cerep enzyme and uptake assay; conditions: Compound concentration 10.0 uM
# [25] = target: Disintegrin and metalloproteinase domain-containing protein 17 (Homo sapiens) (UniProt P78536); assay: TACE (h) Eurofins-Cerep enzyme and uptake assay; conditions: Compound concentration 10.0 uM
# [26] = target: Proteinase-activated receptor 1 (Homo sapiens) (UniProt P25116); assay: PAR1 (h) Eurofins-Cerep Cellular and Nuclear Receptor Functional Assays; conditions: Compound concentration 10.0 uM
# Chain of Proteinase-activated receptor 1 (Homo sapiens) (P25116 whole entry): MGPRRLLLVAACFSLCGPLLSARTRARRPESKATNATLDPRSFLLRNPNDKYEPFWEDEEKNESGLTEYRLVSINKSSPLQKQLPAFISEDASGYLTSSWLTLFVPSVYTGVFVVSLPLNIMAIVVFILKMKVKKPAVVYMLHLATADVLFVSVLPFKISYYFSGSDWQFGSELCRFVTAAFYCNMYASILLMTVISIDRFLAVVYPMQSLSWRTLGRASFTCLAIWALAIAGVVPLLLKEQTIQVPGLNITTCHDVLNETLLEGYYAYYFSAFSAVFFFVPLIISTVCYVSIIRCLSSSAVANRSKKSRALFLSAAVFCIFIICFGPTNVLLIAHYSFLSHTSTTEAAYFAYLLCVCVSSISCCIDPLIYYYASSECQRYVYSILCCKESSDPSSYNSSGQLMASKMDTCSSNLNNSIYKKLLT
# [27] = target: Cyclin-dependent kinase-like 2 (Homo sapiens) (UniProt Q92772); conditions: Compound concentration 1000.0 nM
# Chain of Cyclin-dependent kinase-like 2 (Homo sapiens) (Q92772 whole entry): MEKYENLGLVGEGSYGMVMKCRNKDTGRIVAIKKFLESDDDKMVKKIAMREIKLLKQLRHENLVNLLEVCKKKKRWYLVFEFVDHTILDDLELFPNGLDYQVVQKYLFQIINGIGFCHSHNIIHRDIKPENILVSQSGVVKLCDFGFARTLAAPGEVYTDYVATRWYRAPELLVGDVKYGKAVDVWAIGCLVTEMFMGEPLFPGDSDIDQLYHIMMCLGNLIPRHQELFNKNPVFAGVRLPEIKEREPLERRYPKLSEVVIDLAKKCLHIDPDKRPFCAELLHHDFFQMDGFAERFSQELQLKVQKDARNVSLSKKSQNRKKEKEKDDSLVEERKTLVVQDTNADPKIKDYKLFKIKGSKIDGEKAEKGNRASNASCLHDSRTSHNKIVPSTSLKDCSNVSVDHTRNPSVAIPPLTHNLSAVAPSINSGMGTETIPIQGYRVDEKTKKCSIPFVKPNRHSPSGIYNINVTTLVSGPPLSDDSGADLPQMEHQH
# [28] = target: Myosin light chain kinase, smooth muscle (Homo sapiens) (UniProt Q15746); conditions: Compound concentration 1000.0 nM
# Chain of Myosin light chain kinase, smooth muscle (Homo sapiens) (Q15746 whole entry): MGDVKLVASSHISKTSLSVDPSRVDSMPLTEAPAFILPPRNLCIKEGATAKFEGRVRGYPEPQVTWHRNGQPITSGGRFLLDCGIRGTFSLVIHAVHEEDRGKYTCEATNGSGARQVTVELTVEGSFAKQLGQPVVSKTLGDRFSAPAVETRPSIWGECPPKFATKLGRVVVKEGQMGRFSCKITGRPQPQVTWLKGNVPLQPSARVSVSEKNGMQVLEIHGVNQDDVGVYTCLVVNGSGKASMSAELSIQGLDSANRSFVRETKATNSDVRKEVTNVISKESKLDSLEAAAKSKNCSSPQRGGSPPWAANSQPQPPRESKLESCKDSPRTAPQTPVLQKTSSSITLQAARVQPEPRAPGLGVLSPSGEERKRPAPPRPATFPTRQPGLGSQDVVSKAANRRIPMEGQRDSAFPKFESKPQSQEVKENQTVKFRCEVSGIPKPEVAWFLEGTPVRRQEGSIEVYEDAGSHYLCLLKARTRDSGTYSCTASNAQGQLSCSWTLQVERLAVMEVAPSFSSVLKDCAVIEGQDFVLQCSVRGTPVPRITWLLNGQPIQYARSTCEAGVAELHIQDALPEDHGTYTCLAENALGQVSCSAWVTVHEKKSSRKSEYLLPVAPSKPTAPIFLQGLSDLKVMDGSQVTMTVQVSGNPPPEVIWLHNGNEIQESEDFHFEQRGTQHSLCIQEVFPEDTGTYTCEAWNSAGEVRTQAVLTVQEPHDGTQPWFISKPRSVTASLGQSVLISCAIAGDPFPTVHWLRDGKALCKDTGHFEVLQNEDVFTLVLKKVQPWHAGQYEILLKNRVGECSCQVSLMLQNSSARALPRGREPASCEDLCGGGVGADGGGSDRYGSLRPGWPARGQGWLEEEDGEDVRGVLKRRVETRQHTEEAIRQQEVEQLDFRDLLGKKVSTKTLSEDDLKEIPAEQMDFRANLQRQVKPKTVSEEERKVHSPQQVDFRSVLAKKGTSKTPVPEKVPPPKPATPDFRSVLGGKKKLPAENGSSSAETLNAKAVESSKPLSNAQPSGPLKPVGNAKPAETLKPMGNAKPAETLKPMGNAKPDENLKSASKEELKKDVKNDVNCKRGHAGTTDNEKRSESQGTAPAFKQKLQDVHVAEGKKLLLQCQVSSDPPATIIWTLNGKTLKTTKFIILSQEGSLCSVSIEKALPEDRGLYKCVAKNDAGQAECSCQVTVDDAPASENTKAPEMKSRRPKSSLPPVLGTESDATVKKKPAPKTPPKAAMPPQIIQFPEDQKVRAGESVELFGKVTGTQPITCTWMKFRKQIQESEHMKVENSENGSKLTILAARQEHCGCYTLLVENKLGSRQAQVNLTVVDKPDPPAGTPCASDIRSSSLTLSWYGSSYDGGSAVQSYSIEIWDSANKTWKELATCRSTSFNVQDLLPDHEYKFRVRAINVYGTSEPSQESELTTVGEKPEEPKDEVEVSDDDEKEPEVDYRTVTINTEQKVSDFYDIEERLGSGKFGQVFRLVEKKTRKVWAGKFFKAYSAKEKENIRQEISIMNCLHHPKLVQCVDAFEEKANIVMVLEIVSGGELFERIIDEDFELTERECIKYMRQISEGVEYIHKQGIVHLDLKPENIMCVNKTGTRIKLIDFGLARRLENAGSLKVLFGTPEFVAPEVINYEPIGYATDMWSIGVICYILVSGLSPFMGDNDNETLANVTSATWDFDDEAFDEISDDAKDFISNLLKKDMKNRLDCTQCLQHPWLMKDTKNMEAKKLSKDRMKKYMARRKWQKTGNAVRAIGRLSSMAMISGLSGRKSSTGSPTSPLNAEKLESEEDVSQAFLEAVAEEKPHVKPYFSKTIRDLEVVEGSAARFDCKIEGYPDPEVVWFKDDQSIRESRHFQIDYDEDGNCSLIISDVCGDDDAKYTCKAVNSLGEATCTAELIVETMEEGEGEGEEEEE
# [29] = target: Mitogen-activated protein kinase kinase kinase 14 (Homo sapiens) (UniProt Q99558); conditions: Compound concentration 1000.0 nM
# Chain of Mitogen-activated protein kinase kinase kinase 14 (Homo sapiens) (Q99558 whole entry, looked up): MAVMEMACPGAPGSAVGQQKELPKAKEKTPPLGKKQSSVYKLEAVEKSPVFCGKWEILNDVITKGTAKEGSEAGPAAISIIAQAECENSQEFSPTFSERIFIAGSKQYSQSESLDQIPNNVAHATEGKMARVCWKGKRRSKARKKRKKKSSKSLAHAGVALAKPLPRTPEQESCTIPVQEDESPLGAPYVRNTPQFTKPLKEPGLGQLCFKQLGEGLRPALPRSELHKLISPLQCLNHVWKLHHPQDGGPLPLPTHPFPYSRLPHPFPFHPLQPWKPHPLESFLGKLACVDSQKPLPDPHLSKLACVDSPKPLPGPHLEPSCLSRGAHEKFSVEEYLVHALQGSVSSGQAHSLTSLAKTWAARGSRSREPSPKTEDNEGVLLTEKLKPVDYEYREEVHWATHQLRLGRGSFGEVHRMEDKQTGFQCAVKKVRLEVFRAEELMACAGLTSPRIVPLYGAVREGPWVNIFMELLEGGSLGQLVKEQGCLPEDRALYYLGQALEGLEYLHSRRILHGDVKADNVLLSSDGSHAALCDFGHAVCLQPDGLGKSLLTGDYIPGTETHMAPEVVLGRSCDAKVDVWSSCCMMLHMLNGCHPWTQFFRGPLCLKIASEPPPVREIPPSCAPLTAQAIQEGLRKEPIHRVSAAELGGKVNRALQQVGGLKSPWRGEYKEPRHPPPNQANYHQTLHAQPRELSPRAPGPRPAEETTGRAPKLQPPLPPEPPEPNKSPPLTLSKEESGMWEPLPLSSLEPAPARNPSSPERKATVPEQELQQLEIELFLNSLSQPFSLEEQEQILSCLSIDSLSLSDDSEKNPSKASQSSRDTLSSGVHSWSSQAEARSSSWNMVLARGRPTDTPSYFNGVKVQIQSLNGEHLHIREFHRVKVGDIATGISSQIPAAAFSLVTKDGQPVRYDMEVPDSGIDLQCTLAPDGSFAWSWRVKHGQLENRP
# [30] = target: 5-hydroxytryptamine receptor 1A (Homo sapiens) (UniProt P08908); conditions: Compound concentration 10.0 uM
# Chain of 5-hydroxytryptamine receptor 1A (Homo sapiens) (P08908 whole entry): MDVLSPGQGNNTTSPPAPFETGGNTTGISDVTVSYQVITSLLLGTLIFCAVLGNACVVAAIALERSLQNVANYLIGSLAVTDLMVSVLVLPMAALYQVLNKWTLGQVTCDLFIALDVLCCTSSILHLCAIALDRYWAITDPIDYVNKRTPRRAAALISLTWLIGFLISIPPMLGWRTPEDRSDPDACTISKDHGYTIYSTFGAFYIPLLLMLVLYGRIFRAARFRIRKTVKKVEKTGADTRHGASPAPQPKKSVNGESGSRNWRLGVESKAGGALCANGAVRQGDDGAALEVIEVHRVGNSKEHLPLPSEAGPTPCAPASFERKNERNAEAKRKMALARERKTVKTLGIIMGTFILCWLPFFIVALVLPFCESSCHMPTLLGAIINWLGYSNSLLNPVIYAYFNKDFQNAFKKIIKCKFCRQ
# [31] = target: D(2) dopamine receptor (Homo sapiens) (UniProt P14416); conditions: Compound concentration 10.0 uM
# [32] = target: Sodium-dependent dopamine transporter (Homo sapiens) (UniProt Q01959); conditions: Compound concentration 10.0 uM
# [33] = target: Kappa-type opioid receptor (Homo sapiens) (UniProt P41145); conditions: Compound concentration 10.0 uM
# [34] = target: Muscarinic acetylcholine receptor M5 (Homo sapiens) (UniProt P08912); conditions: Compound concentration 10.0 uM
# [35] = target: 5-hydroxytryptamine receptor 2C (Homo sapiens) (UniProt P28335); conditions: Compound concentration 10.0 uM
# [36] = target: 5-hydroxytryptamine receptor 3A (Homo sapiens) (UniProt P46098); conditions: Compound concentration 10.0 uM
# [37] = target: 5-hydroxytryptamine receptor 6 (Homo sapiens) (UniProt P50406); conditions: Compound concentration 10.0 uM
# [38] = target: 5-hydroxytryptamine receptor 7 (Homo sapiens) (UniProt P34969); conditions: Compound concentration 10.0 uM
# [39] = target: Alpha-1B adrenergic receptor (Homo sapiens) (UniProt P35368); conditions: Compound concentration 10.0 uM
# [40] = target: GABA-A receptor; anion channel (Rattus norvegicus) (UniProt O09028+P15431+P18506+P18508+P19969+P20236+P23574+P23576+P28471+P28473+P30191+P62813+P63079+P63138+Q91ZM7+Q9ES14); conditions: Compound concentration 10.0 uM
# Chain of Alpha-2C adrenergic receptor (P18825 whole entry): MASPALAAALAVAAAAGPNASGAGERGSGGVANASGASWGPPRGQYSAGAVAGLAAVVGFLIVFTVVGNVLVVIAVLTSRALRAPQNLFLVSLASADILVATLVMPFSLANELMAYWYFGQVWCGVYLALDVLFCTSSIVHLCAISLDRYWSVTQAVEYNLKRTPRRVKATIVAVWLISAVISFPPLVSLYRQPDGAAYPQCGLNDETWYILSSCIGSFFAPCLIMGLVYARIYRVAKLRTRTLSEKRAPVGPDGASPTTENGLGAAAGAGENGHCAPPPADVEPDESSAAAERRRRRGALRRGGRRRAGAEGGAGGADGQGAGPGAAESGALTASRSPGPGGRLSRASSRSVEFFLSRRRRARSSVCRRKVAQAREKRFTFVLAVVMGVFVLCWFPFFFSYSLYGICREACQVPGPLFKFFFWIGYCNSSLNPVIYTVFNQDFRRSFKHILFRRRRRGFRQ
compound,measurement,setting,value
COc1ccc2c(O[C@@H]3C[C@H]4C(=O)N[C@]5(C(=O)O)CC5/C=C\CCCCC[C@H](NC(=O)OC5CCCC5)C(=O)N4C3)cc(-c3csc(NC(=O)C(C)C)n3)nc2c1C (stereo partly specified) [BI 1230],Ki,[1],4.49 µM
same,Ki,[2]; read-out: Ki,3.29 µM
same,Ki,[2]; read-out: pKi (converted),3.24 µM
same,% Inhibition of Control Values,[3],3.5%
same,% Inhibition of Control Values,Chymase (Homo sapiens),21.2%
same,% Inhibition of Control Values,[4],2.6%
same,% Inhibition of Control Values,[5],-54.7%
same,% Inhibition of Control Values,[6],90.6%
same,% Inhibition of Control Values,[7],14.3%
same,% Inhibition of Control Values,[8],9.7%
same,% Inhibition of Control Values,Caspase-1 (Homo sapiens),-23.1%
same,% Inhibition of Control Values,Caspase-2 (Homo sapiens),44.5%
same,% Inhibition of Control Values,Caspase-6 (Homo sapiens),10.3%
same,% Inhibition of Control Values,Caspase-7 (Homo sapiens),40.6%
same,% Inhibition of Control Values,Caspase-8 (Homo sapiens),-6.2%
same,% Inhibition of Control Values,[9],38.2%
same,% Inhibition of Control Values,[10],-1.7%
same,% Inhibition of Control Values,[11],-2.2%
same,% Inhibition of Control Values,[12],-16.8%
same,% Inhibition of Control Values,[13],63%
same,% Inhibition of Control Values,[14],-8.1%
same,% Inhibition of Control Values,[15],12.3%
same,% Inhibition of Control Values,[16],48.2%
same,% Inhibition of Control Values,[17],4%
same,% Inhibition of Control Values,[18],23.1%
same,% Inhibition of Control Values,[19],54.8%
same,% Inhibition of Control Values,[20],28%
same,% Inhibition of Control Values,[21],125%
same,% Inhibition of Control Values,[22],16.1%
same,% Inhibition of Control Values,[23],73.8%
same,% Inhibition of Control Values,[24],59.2%
same,% Inhibition of Control Values,[25],63.7%
same,% Inhibition of Control Agonist Response,[26],59.6%
same,% of Control Agonist Response,[26],-0.9%
same,residual activity,[27],89%
same,residual activity,[28],78%
same,residual activity,[29],89%
same,inhibition,[30],-6.16%
same,inhibition,[31],4.88%
same,inhibition,[32],17.4%
same,inhibition,[33],18.1%
same,inhibition,[34],3.15%
O=C(N[C@H]1CCCCC/C=C\C2C[C@@]2(C(=O)O)NC(=O)[C@@H]2C[C@@H](Oc3ccncc3)CN2C1=O)OC1CCCC1 (stereo partly specified) [BI 1675],residual activity,[27],100%
same,residual activity,[28],100%
same,residual activity,[29],100%
same,inhibition,[35],7.99%
same,inhibition,[36],-8.48%
same,inhibition,[37],-7.71%
same,inhibition,[38],-3.24%
same,inhibition,[39],-7.2%
same,inhibition,[40],8.04%
